pIC50: −log10 of the molar value.

For one data set, the system named is MCF7 cells. Put plainly: Trypan blue viability assay, MCF7. The data set is classed as cell-based. The text has this: (§1) The non-small cell lung cancer (NSCLC) cell line NCI-H1299, the breast cancer cell lines MCF7 and MDA MB 231 and the Hep3B, Hep2G and SK-Hep1 cells were obtained from the American Type Culture Collection (ATCC) (Manassas, Va., USA) and maintained as a monolayer culture in Eagle's minimum essential medium (MEM, Invitrogen, Gaithersburg, Md., USA) supplemented with 10% fetal bovine serum at 37 C and 5% CO2. All treatments were done in triplicate samples on 96-well plates. VX2 cells were maintained as described in Geschwind et al., Cancer Res., 62:3909-3913 (2002).
The efficacy of 3-BrPA in the treatment of breast cancer cells was tested using the cancer cell lines MCF7 and MDA MB 231. As described above, the cell lines were grown as monolayers in MEM (Invitrogen) supplemented with 10% fetal bovine serum (HyClone) at 37 C.° and 5% CO2, and all treatments were done in triplicate samples on 96-well plates.
The EC50 of 3-BrPA for MCF7 cells lies between 0.05 and 0.06 mM. […] Therefore, considering that oral administration of 3-BrPA buffered in NaHCO3 is effective in prolonging survival in liver cancer models (Example 2), it is probable that oral administration of 3-BrPA buffered in NaHCO3 would also be effective in the treatment of breast cancer.

The next data set concerns Hep3B cells. The data set can be described thus: ATP dependent luminescence cell viability assay, Hep3B. The data set is classed as cell-based.
Source text: as §1
Cytotoxicity of 3-BrPA was evaluated by the IC50 values, representing the drug concentration which depletes ATP by 50% compared to non-treated control. On day 1, cells were seeded into 96-well plates in a volume of 100 μl per well. On day 2, the medium of all wells was removed and an aliquot of 100 μl of media having serial dilutions of 3-BrPA in PBS, NaHCO3, NaOH, KOH and KHCO3 was added to the appropriate well. […] Briefly, 100 μl assay reagent was added to each well and mixed at room temperature for 2 min to develop luminescent signal. The luminescence intensity (cps) from each sample was determined with a spectrometer (Model Victor III, Perkin Elmer, Mass.). […]
The effects on cell viability and cellular metabolism of 3-BrPA on Hep3B and VX2 cells were examined using luminescence ATP assays, as described above. […]

Data set [1] in a line: General toxicology studies, oral NaHCO3-buffered 3-BrPA. Conditions: 100 and 200 mg/kg/day oral, single dose to 3-months of daily dosing. The data set is classed as in vivo, nude mice. Here is the method: General toxicology studies were conducted on nude mice that were orally administered NaHCO3-buffered 3-BrPA at doses of 0, 100 and 200 mg/kg/day. The duration of exposure in this study ranged from a single dose to 3-months of daily dosing. […] 3-BrPA treatment had no effect on body weight.

The subject of a further data set is H1299 cells. The data set can be described thus: Luminescence ATP assay, H1299. The data set is classed as cell-based. Here is the method: Cytotoxicity of 3-BrPA was evaluated by the IC50 values, representing the drug concentration which depletes ATP by 50% compared to non-treated control. On day 1, cells were seeded into 96-well plates in a volume of 100 μl per well. On day 2, the medium of all wells was removed and an aliquot of 100 μl of media having serial dilutions of 3-BrPA in PBS, NaHCO3, NaOH, KOH and KHCO3 was added to the appropriate well. After 24 h of drug exposure cytotoxic effects of 3-BrPA were monitored by cellular ATP level using CellTiter-Glo™ assay reagents from Promega Corp (Madison, Wis.). Briefly, 100 μl assay reagent was added to each well and mixed at room temperature for 2 min to develop luminescent signal. The luminescence intensity (cps) from each sample was determined with a spectrometer (Model Victor III, Perkin Elmer, Mass.). Relative luminescence was calculated in proportion to the numbers of living cells per sample well. The results are expressed as the mean of three independent experiments. The intracellular ATP contents were calculated and normalized by equal cell number and expressed as the percentage of the control cells. The IC50 values were estimated graphically from dose-response plots.
The anti-metabolic effect of 3-BrPA on H1299 cells was examined using luminescence ATP assays, as described above. […]

What is called pIC50 is −log10 of the IC50, conventionally taken in molar units. As to `O=C(O)C(=O)CBr` [3-BrPA, 3-bromopyruvate], the Cells died entry in the data set with MCF7 cells (0.05 mM, within 3 hours) is recorded as “more than 40%”. In the data set on MCF7 cells (0.15 mM), the Cell death came to 100%. In the data set with MCF7 cells (MCF7), the “EC50 compared with EC50 of 3-BrPA for VX2 liver cancer cells” value is “lower”; the “Viability (trypan blue)” value is “dose and time dependent decrease in viability”. Further, the “Level of ATP” value in the data set with Hep3B cells (3, 24, 48 hours) was “dose and time dependent decrease”. The negative-log IC50 (pIC50) in the data set with Hep3B cells (at 48 hours, read-out: IC50 (ATP depletion)) was 3.90. Moreover, in data set [1], the Clinical symptoms entry was “did not exhibit any treatment related clinical symptoms”; the “Effect on body weight” value is listed as “no effect”; the Mortality entry is reported as “no mortalities”; the “Organ weights, gross pathology and histopathology” value was “did not show any treatment-related changes”. Besides, the “ATP level (bioluminescent quantification)” value in the data set with H1299 cells is “dose and time dependent energy (ATP) depletion”.

The record behind these values is patent US10130598B2, “Methods and compositions for administration of 3-halopyruvate and related compounds for the treatment of cancer” (The Johns Hopkins University, priority 2008, dated 2018).
